This is an account of results in ChEMBL document CHEMBL1133642, “Difluoro ketone peptidomimetics suggest a large S1 pocket for Alzheimer's gamma-secretase: implications for inhibitor design” (J Med Chem, 2000).

The structures appear in SMILES notation.

For orientation: IC50 means the concentration that gives 50% inhibition. Low readings indicate inhibition by little substance, high ones a need for much substance. By inhibition is commonly meant how much of the control response was suppressed.

A short description of the first test: Concentration required for 50% inhibition of Amyloid beta protein production in Amyloid precursor protein (APP)-transfected Chinese hamster ovary(CHO) cells. The note with it: Cricetulus griseus. The format is functional.
With `CCC(C)[C@H](NC(=O)[C@@H](NC(=O)C(F)(F)C(=O)[C@H](C)NC(=O)[C@@H](NC(=O)OC(C)(C)C)C(C)C)C(C)C)C(=O)NC` (stereo partly specified), the IC50 was < 100 µM.

Turning to `CCOC(=O)[C@@H](NC(=O)[C@@H](NC(=O)C(F)(F)C(=O)[C@H](C)NC(=O)[C@@H](NC(=O)OC(C)(C)C)C(C)C)C(C)C)C(C)CC` (stereo partly specified), the IC50 worked out at 9 µM.

Consider `CCC(C)[C@H](NC(=O)[C@@H](NC(=O)C(F)(F)C(=O)[C@H](C)NC(=O)[C@@H](NC(=O)OC(C)(C)C)C(C)C)C(C)C)C(=O)N(C)C` (stereo partly specified), for which the IC50 is 25 µM.

On to `CCC(C)[C@H](NC(=O)[C@@H](NC(=O)C(F)(F)C(=O)[C@H](C)NC(=O)[C@@H](NC(=O)OC(C)(C)C)C(C)C)C(C)C)C(=O)OC` (stereo partly specified), for which the IC50 was 15 µM. Compared with the last compound, the IC50 is about 1.7-fold lower. Same read-out and setting: the result for `CCC(C)[C@H](NC(=O)[C@@H](NC(=O)C(F)(F)C(=O)[C@H](CC1CCCCC1)NC(=O)[C@@H](NC(=O)OC(C)(C)C)C(C)C)C(C)C)C(=O)OC` (stereo partly specified) reads 4 µM. `CCC(C)[C@H](NC(=O)[C@@H](NC(=O)C(F)(F)C(=O)[C@@H](NC(=O)[C@@H](NC(=O)OC(C)(C)C)C(C)C)C(C)C)C(C)C)C(=O)OC` (stereo partly specified) returned an IC50 of 9 µM. Still for that read-out and setting: the result for `CCC(C)[C@H](NC(=O)[C@@H](NC(=O)C(F)(F)C(=O)[C@@H](NC(=O)[C@@H](NC(=O)OC(C)(C)C)C(C)C)C(C)CC)C(C)C)C(=O)OC` (stereo partly specified) reads 6 µM; that for `CCC(C)[C@H](NC(=O)[C@@H](NC(=O)C(F)(F)C(=O)[C@H](CC1CCCCC1)NC(=O)[C@@H](NC(=O)OC(C)(C)C)C(C)C)C(C)C)C(=O)OCc1ccccc1` (stereo partly specified), 6 µM; that for `CCC(C)[C@H](NC(=O)[C@@H](NC(=O)C(F)(F)C(=O)[C@H](C)NC(=O)[C@@H](NC(=O)OC(C)(C)C)C(C)C)C(C)C)C(=O)OCc1ccccc1` (stereo partly specified), 4 µM. Still for that read-out and setting: the result for `CCC(C)[C@H](NC(=O)[C@@H](NC(=O)C(F)(F)C(=O)[C@@H](NC(=O)[C@@H](NC(=O)OC(C)(C)C)C(C)C)c1ccccc1)C(C)C)C(=O)OC` (stereo partly specified) reads 9 µM.

The next test can be described thus: Inhibition of Amyloid beta protein production at 25 uM in Amyloid precursor protein (APP)-transfected Chinese hamster ovary(CHO) cells. The note with it: Cricetulus griseus. The format is functional.
Take `CCC(C)[C@H](NC(=O)[C@@H](NC(=O)C(F)(F)C(=O)[C@H](C)NC(=O)[C@@H](NC(=O)OC(C)(C)C)C(C)C)C(C)C)C(=O)OC` (stereo partly specified): the inhibition at 25 µM was ≥ 65%.
